The results in this text go back to patent US20090117074A1, “Sulfonylpyrroles as Histone Deacetylase Inhibitors” (NYCOMED GmbH, priority 2005, published 2009).

In series [1] the test system is histone H3 hyperacetylation in HeLa cells. Kind of series: Cellular histone H3 hyperacetylation assay. As to conditions: Homo sapiens, 24 h incubation. The series is classed as cell-based. The text has this: To assess the cellular efficacy of a histone deacetylase inhibitor in vitro, an assay is set up in black clear-bottom 96-well plates and optimized for use on the Cellomics “ArrayScan II” platform for a quantitative calculation of histone acetylation. The protocol uses a polyclonal rabbit antibody, specifically binding to acetylated lysine 23 or, alternatively, acetylated lysine 9+14 of human histone H3 on fixed cells with an Alexa Fluor 488 labeled goat anti rabbit-IgG used for counterstaining (modified from Braunger et al. AACR annual conference 2003, Abstract 4556).
5×10^3 HeLa cervical carcinoma cells/well (ATCC CCL-2) in 200 μl Dulbecco's modified Eagle's medium (DMEM) containing 10% fetal calf serum are seeded at day 1 in Packard view plates and incubated for 24 h under standard cell culture conditions. On day 2, 1 μl test compound (200× final concentration) is added and incubation continued for further 24 h. On day 3, the culture medium is discarded and attached cells fixed for 15 min at room temperature by addition of 100 μl fixation buffer (3.7% v:v formaldehyde in phosphate buffered saline/PBS). After discarding the fixation buffer and one wash with blocking solution (1% BSA, 0.3% Tween 20 in PBS), cells are permeabilized at room temperature by addition of 100 μl/well permeabilization buffer (30.8 mM NaCl, 0.54 mM Na2HPO4, 0.31 mM KH2PO4, 0.1% v:v Triton X-100) for 15 min at room temperature. After discarding the permeabilization buffer and washing twice with 100 μl/well blocking solution at room temperature, the 1st antibody (anti-K23 histone H3 antibody, Cell Signaling No. 9674 or, alternatively, anti-K9+14 histone H3 antibody, Calbiochem No. 382158) in blocking solution (50 μl/well) is added. After incubation for 1 h at room temperature, the wells are washed twice at room temperature with 100 μl/well blocking solution before addition of the 2nd antibody (goat-anti-rabbit Alexa Fluor 488; MoBiTec No. A-11008) in blocking solution (50 μl/well). After further incubation for 1 h at room temperature, wells are washed twice with 100 μl/well blocking solution at room temperature. Finally, 100 μl/well PBS are added and image analysis performed on the Cellomics “ArrayScan II” platform. For EC50 determination, the percentage of positive cells showing nuclear fluorescence is determined and EC50 calculation done from concentration-effect curves by means of non-linear regression. For calibration, a positive (reference HDAC inhibitors like SAHA or LBH589) and negative control is included.

The test system of a further series is A549 NSCLC cell line. Kind of series: Cellular cytotoxicity assay (Alamar Blue), A549. The series is classed as cell-based. As to conditions: Homo sapiens, 48 or 72 hours, read-out: IC50, anti-proliferative/cytotoxic activity. As to the method: (§1) The anti-proliferative activity of the histone deacetylase inhibitory compounds as described herein, Is evaluated with the HeLa cervical carcinoma cell line (ATCC CCL2) and A549 non-small cell lung cancer cell line (ATCC CCL185) using the Alamar Blue (Resazurin) cell viability assay (O'Brien et al. Eur J Biochem 267, 5421-5426, 2000). Resazurin is reduced to the fluorescent resorufin by cellular dehydrogenase activity, correlating with viable, proliferating cells. Test compounds are dissolved as 20 mM solutions in dimethylsulfoxide (DMSO) and subsequently diluted in semi-logarithmic steps. HeLa or A549 cells are seeded into 96 well flat bottom plates at a density of 1000 and 2000 cells per well, respectively, in a volume of 200 μl per well. 24 hours after seeding 1 μl each of the compound dilutions are added into each well of the 96 Well plate. Each compound dilution is tested as quadruplicates.
(§2) Wells containing untreated control cells are filled with 200 μl DMEM medium containing 0.5% v:v DMSO. The cells are then incubated with the substances for 48 or 72 hours at 37° C. in a humidified atmosphere containing 5% carbon dioxide. To determine the viability of the cells, 20 μl of an Resazurin solution (Sigma; 90 mg/I) were added. After 4 hours incubation at 37° C. the fluorescence is measured at an extinction of 544 nm and an emission of 590 nm. For the calculation of the cell viability the emission value from untreated cells is set as 100% viability and the emission rates of treated cells are set in relation to the values of untreated cells. Viabilities are expressed as % values. The corresponding IC50 values of the compounds for cytotoxic activity are determined from the concentration-effect curves by means of non-linear regression.

Series [2] relates to HeLa cervical carcinoma cell line. The experiment in a line: Cellular cytotoxicity assay (Alamar Blue), HeLa. The conditions noted are these: Homo sapiens, 48 or 72 hours, read-out: IC50, anti-proliferative/cytotoxic activity. The series is classed as cell-based. As to the method: as §1, §2
For another series, the system named is A549 cells. Kind of series: Apoptosis induction (cell death detection ELISA). The format is cell-based, human. As to conditions: 10 μM, 48 hours. As to the method: The induction of apoptosis is measured by using the cell death detection ELISA (Art. No. 1774425, Roche Biochemicals, Mannheim, Germany). A549 NSCLC cells are seeded into 96 well flat bottom plates at a density of 3×10 E3 cells/well in a total volume of 200 μl/well. 24 hours after seeding, 1 μl each of the compound dilutions in DMEM are added in a total volume of 200 μl into each well (final volume 200 μl/well). Each compound dilution is tested at least as triplicates. Wells containing untreated control cells are filled with 200 μl DMEM containing 0.5 vol % DMSO. The cells are incubated with test compound for 48 hours at 37° C. in a humidified atmosphere containing 5% carbon dioxide. As a positive control for the induction of apoptosis, cells are treated with 50 μM Cisplatin (Gry Pharmaceuticals, Kirchzarten, Germany). Medium is then removed and the cells lysed in 200 μl lysis buffer. After centrifugation as described by the manufacturer, 10 μl of cell lysate is processed as described in the protocol. The degree of apoptosis is calculated as follows: The absorbance at 405 nm obtained with lysates from cells treated with 50 μM cisplatin is set as 100 cpu (cisplatin units), while an absorbance at 405 nm of 0.0 is set as 0.0 cpu. The degree of apoptosis is expressed as cpu in relation to the value of 100 cpu reached with the lysates obtained from cells treated with 50 μM cisplatin.

Where a name gives a salt, the structure may show the parent alone.

As to `Cc1nc(C)c(S(=O)(=O)n2ccc(C=CC(=O)NO)c2)s1` (as salt: HCl) [Example 11, (E)-3-[1-(2, Dimethyl-thiazole-5-sulfonyl)-1H-pyrrol-3-yl]-N-hydroxy-acrylamide], the melting point lay within 181 to 182 °C.
In turn, `O=C(/C=C/c1ccn(S(=O)(=O)c2ccc3ccccc3c2)c1)NO` [Example 1, (E)-N-Hydroxy-3-[1-(naphthalene-2-sulfonyl)-1H-pyrrol-3-yl]-acrylamide] registered an EC50 in series [1] of 190 to 10000 nM. Besides, the IC50 in the series on A549 NSCLC cell line fell in the range of 313 to 6200 nM; in series [2], 230 to 4200 nM. Moreover, the “Apoptosis induction (cisplatin units; 50 μM cisplatin = 100 cpu)” value with A549 cells was 310 cpu.
Taken in the same sequence, the figures for `Nc1ccccc1NC(=O)/C=C/c1ccn(S(=O)(=O)c2ccc3ccccc3c2)c1` [Example 2, (E)-N-(2-Amino-phenyl)-3-[1-(naphthalene-2-sulfonyl)-1H-pyrrol-3-yl]-acrylamide] were 190 to 10000 nM, 313 to 6200 nM, 230 to 4200 nM and 46 cpu.
`O=C(/C=C/c1ccn(S(=O)(=O)c2cccnc2)c1)NO` [Example 3, (E)-N-Hydroxy-3-[1-(pyridine-3-sulfonyl)-1H-pyrrol-3-yl]-acrylamide] had a melting point of 161.4 to 176.4 °C. Besides, the IC50 with A549 NSCLC cell line was 313 to 6200 nM. Besides, in series [2], the IC50 is 230 to 4200 nM.
`O=C(/C=C/c1ccn(S(=O)(=O)c2ccc(N3CCOCC3)nc2)c1)NO` [Example 4, (E)-N-Hydroxy-3-[1-(6-morpholin-4-yl-pyridine-3-sulfonyl)-1H-pyrrol-3-yl]-acrylamide]: the EC50 in series [1] was 190 to 10000 nM. The IC50 in the series on A549 NSCLC cell line is 313 to 6200 nM; in series [2] it was 230 to 4200 nM.
For `Cn1cc(S(=O)(=O)n2ccc(/C=C/C(=O)NO)c2)cn1` [Example 8, (E)-N-Hydroxy-3-[1-(1-methyl-1H-pyrazole-4-sulfonyl)-1H-pyrrol-3-yl]-acrylamide], the IC50 with A549 NSCLC cell line is 313 to 6200 nM; in series [2], 230 to 4200 nM.
Regarding `O=C(/C=C/c1ccn(S(=O)(=O)c2cc3ccccc3s2)c1)NO` [Example 9, (E)-3-[1-(Benzo[b]thiophene-2-sulfonyl)-1H-pyrrol-3-yl]-N-hydroxy-acrylamide], in series [1], the EC50 is 190 to 10000 nM. Besides, the IC50 with A549 NSCLC cell line was in the range of 313 to 6200 nM; in series [2], 230 to 4200 nM.
Taken in the same sequence, the figures for `O=C(/C=C/c1ccn(S(=O)(=O)c2ccc3ncsc3c2)c1)NO` [Example 10, (E)-3-[1-(Benzothiazole-6-sulfonyl)-1H-pyrrol-3-yl]-N-hydroxy-acrylamide] were 190 to 10000 nM, 313 to 6200 nM and 230 to 4200 nM.
As to `Cc1nc(C)c(S(=O)(=O)n2ccc(C=CC(=O)NO)c2)s1` [Example 11, (E)-3-[1-(2, Dimethyl-thiazole-5-sulfonyl)-1H-pyrrol-3-yl]-N-hydroxy-acrylamide], the IC50 was 313 to 6200 nM with A549 NSCLC cell line and 230 to 4200 nM in series [2].
Take `Cc1nc(S(=O)(=O)n2ccc(/C=C/C(=O)NO)c2)cn1C` [Example 12, (E)-3-[1-(1,2-Dimethyl-1H-imidazole-4-sulfonyl)-1H-pyrrol-3-yl]-N-hydroxy-acrylamide]: the melting point fell in the range of 190 to 194 °C.
